≈ marks a conversion by molar mass, not a printed value.
Legend:
[1] = tested on: Geotrichum sp.; experiment: inhibition of pathogenic strains isolated from contaminated human members, Geotrichum sp.; assay type: cell-based; conditions: 12 strains studied
Procedure: (§3) Studies were also conducted on the activity of the glucose derivative of nystatin, as compared with nystatin, in relation to a series of pathogenic strains of Candida and Geotrichum isolated from contaminated human members.

[2] = tested on: Candida sp.; experiment: inhibition of pathogenic strains isolated from contaminated human members, Candida sp.; assay type: cell-based; conditions: 8 strains studied
Procedure: as §3

[3] = tested on: Saccahromyces cerevisiae; experiment: antimicrobial activity in solid nutrient medium (serial dilution), Saccharomyces cerevisiae; assay type: cell-based; conditions: solid Sabouraud medium, 36° C, 24 hours
Procedure: (§1) (a) determination of the antimicrobial activity of antibiotics and their derivatives in solid nutrient medium-- table 1
(§2) The antimicrobial activity in solid nutrient medium has been estimated with the aid of the serial dilution method as follows: 1 mg of antibiotic was dissolved in 1 ml of dimethylsulphoxide and diluted with 9 ml of sterile water. Serial dilutions in water had been performed and the minimum concentration inhibiting the growth of standard strains of Candida albicans and Saccahromyces cerevisiae estimated: 0.5 ml of the antibiotic solution was mixed in a Petri dish 10 cm in diameter with 9.5 ml of Sabouraud medium having a temperature of about 60° C. After mixing, solidifying the nutrient agar and inoculating the test microorganism on the surface, they were incubated at 36° C for 24 hours. The minimum inhibitory concentration was stated on the basis of observed absence of microorganism growth.

[4] = tested on: Candida albicans; experiment: inhibition of pathogenic strains isolated from contaminated human members, Candida albicans; assay type: cell-based; conditions: 12 strains studied
Procedure: as §3

[5] = tested on: Candida albicans; experiment: antimicrobial activity in solid nutrient medium (serial dilution), Candida albicans; assay type: cell-based; conditions: solid Sabouraud medium, 36° C, 24 hours
Procedure: as §1, §2

[6] = tested on: tested microorganisms; experiment: antimicrobial activity in liquid nutrient medium (serial dilution, turbidity); assay type: cell-based
Procedure: (b) determination of the antimicrobial activity of antibiotics and their derivatives in liquid nutrient medium-- table 2.
The antimicrobial activity of antibiotics and their derivatives in liquid nutrient medium has been determined by making serial dilutions of antibiotics in the manner described above and by mixing of 0.5 ml of antibiotic solution with 4.5 ml of medium inoculated with tested microorganisms and prepared after Sabouraud without agar and with the addition of tarchocilin in the amount of 25 mg per 1 l. Solutions were allowed to stand for 48 hours at the temperature of 32° C.
Minimum concentration that inhibits the microorganisms growth has been determined on the basis of turbidity determined by extinction growth at […]; results are compared in table 2.

[7] = Geotrichum sp. after 24 hrs, 3.12 mcg/ml
[8] = Geotrichum sp. after 24 hrs, 6.25 mcg/ml
[9] = Geotrichum sp. after 24 hrs, 12.5 mcg/ml
[10] = Geotrichum sp. after 24 hrs, 25.0 mcg/ml
[11] = Geotrichum sp. after 24 hrs, 50.0 mcg/ml
[12] = Geotrichum sp. after 48 hrs, 3.12 mcg/ml
[13] = Geotrichum sp. after 48 hrs, 6.25 mcg/ml
[14] = Geotrichum sp. after 48 hrs, 12.5 mcg/ml
[15] = Geotrichum sp. after 48 hrs, 25.0 mcg/ml
[16] = Geotrichum sp. after 48 hrs, 50.0 mcg/ml
[17] = Candida sp. after 24 hrs, 3.12 mcg/ml
[18] = Candida sp. after 24 hrs, 6.25 mcg/ml
[19] = Candida sp. after 24 hrs, 12.5 mcg/ml
[20] = Candida sp. after 24 hrs, 25.0 mcg/ml
[21] = Candida sp. after 24 hrs, 50.0 mcg/ml
[22] = Candida sp. after 48 hrs, 3.12 mcg/ml
[23] = Candida sp. after 48 hrs, 6.25 mcg/ml
[24] = Candida sp. after 48 hrs, 12.5 mcg/ml
[25] = Candida sp. after 48 hrs, 25.0 mcg/ml
[26] = Candida sp. after 48 hrs, 50.0 mcg/ml
[27] = Candida albicans after 24 hrs, 3.12 mcg/ml
[28] = Candida albicans after 24 hrs, 6.25 mcg/ml
[29] = Candida albicans after 24 hrs, 12.5 mcg/ml
[30] = Candida albicans after 24 hrs, 25.0 mcg/ml
[31] = Candida albicans after 24 hrs, 50.0 mcg/ml
[32] = Candida albicans after 48 hrs, 3.12 mcg/ml
[33] = Candida albicans after 48 hrs, 6.25 mcg/ml
[34] = Candida albicans after 48 hrs, 12.5 mcg/ml
[35] = Candida albicans after 48 hrs, 25.0 mcg/ml
[36] = Candida albicans after 48 hrs, 50.0 mcg/ml
[37] = liquid medium after Sabouraud without agar, 48 hours, 32° C, extinction at 660 mm

C[C@@H]1[C@H](O)[C@@H](C)/C=C/C=C/CC/C=C/C=C/C=C/C=C/C(O[C@H]2O[C@H](C)[C@@H](O)[C@H](N)[C@@H]2O)CC2O[C@](O)(CC(O)C(O)CCC(O)CC(O)CC(O)CC(=O)O[C@H]1C)CC(O)C2C(=O)O (stereo partly drawn) [nystatin]
Number of strains the growth of which has been inhibited ([1]; Geotrichum sp. after 24 hrs, 1.56 mcg/ml): 0 strains | Number of strains the growth of which has been inhibited [1, 7]: 2 strains | Number of strains the growth of which has been inhibited [1, 8]: 10 strains | Number of strains the growth of which has been inhibited [1, 9]: 0 strains | Number of strains the growth of which has been inhibited [1, 10]: 0 strains | Number of strains the growth of which has been inhibited [1, 11]: 0 strains | Number of strains the growth of which has been inhibited ([1]; Geotrichum sp. after 48 hrs, 1.56 mcg/ml): 0 strains | Number of strains the growth of which has been inhibited [1, 12]: 0 strains | Number of strains the growth of which has been inhibited [1, 13]: 5 strains | Number of strains the growth of which has been inhibited [1, 14]: 7 strains | Number of strains the growth of which has been inhibited [1, 15]: 0 strains | Number of strains the growth of which has been inhibited [1, 16]: 0 strains | Number of strains the growth of which has been inhibited ([2]; Candida sp. after 24 hrs, 1.56 mcg/ml): 2 strains | Number of strains the growth of which has been inhibited [2, 17]: 3 strains | Number of strains the growth of which has been inhibited [2, 18]: 1 strains | Number of strains the growth of which has been inhibited [2, 19]: 2 strains | Number of strains the growth of which has been inhibited [2, 20]: 0 strains | Number of strains the growth of which has been inhibited [2, 21]: 0 strains | Number of strains the growth of which has been inhibited ([2]; Candida sp. after 48 hrs, 1.56 mcg/ml): 0 strains | Number of strains the growth of which has been inhibited [2, 22]: 3 strains | Number of strains the growth of which has been inhibited [2, 23]: 1 strains | Number of strains the growth of which has been inhibited [2, 24]: 3 strains | Number of strains the growth of which has been inhibited [2, 25]: 1 strains | Number of strains the growth of which has been inhibited [2, 26]: 0 strains | Minimum inhibitory concentration against cerevisiae [3]: 2 µg/mL (≈ 2.16 µM) | Number of strains the growth of which has been inhibited ([4]; Candida albicans after 24 hrs, 1.56 mcg/ml): 1 strains | Number of strains the growth of which has been inhibited [4, 27]: 11 strains | Number of strains the growth of which has been inhibited [4, 28]: 0 strains | Number of strains the growth of which has been inhibited [4, 29]: 0 strains | Number of strains the growth of which has been inhibited [4, 30]: 0 strains | Number of strains the growth of which has been inhibited [4, 31]: 0 strains | Number of strains the growth of which has been inhibited ([4]; Candida albicans after 48 hrs, 1.56 mcg/ml): 0 strains | Number of strains the growth of which has been inhibited [4, 32]: 2 strains | Number of strains the growth of which has been inhibited [4, 33]: 10 strains | Number of strains the growth of which has been inhibited [4, 34]: 0 strains | Number of strains the growth of which has been inhibited [4, 35]: 0 strains | Number of strains the growth of which has been inhibited [4, 36]: 0 strains | Minimum inhibitory concentration against Candida albicans [5]: 2 µg/mL (≈ 2.16 µM)

C[C@@H]1[C@H](O)[C@@H](C)/C=C/C=C/CC/C=C/C=C/C=C/C=C/[C@H](O[C@@H]2O[C@H](C)[C@@H](O)[C@H](NC3O[C@H](CO)[C@@H](O)[C@H](O)[C@H]3O)[C@@H]2O)C[C@@H]2O[C@](O)(C[C@@H](O)[C@H](O)CC[C@@H](O)C[C@@H](O)C[C@@H](O)CC(=O)O[C@H]1C)C[C@H](O)[C@H]2C(=O)O (stereo partly drawn) [glucose derivative of nystatin]
Number of strains the growth of which has been inhibited [1, 7]: 0 strains | Number of strains the growth of which has been inhibited [1, 8]: 5 strains | Number of strains the growth of which has been inhibited [1, 9]: 7 strains | Number of strains the growth of which has been inhibited [1, 10]: 0 strains | Number of strains the growth of which has been inhibited [1, 11]: 0 strains | Number of strains the growth of which has been inhibited [1, 12]: 0 strains | Number of strains the growth of which has been inhibited [1, 13]: 0 strains | Number of strains the growth of which has been inhibited [1, 14]: 9 strains | Number of strains the growth of which has been inhibited [1, 15]: 3 strains | Number of strains the growth of which has been inhibited [1, 16]: 0 strains | Number of strains the growth of which has been inhibited [2, 17]: 2 strains | Number of strains the growth of which has been inhibited [2, 18]: 5 strains | Number of strains the growth of which has been inhibited [2, 19]: 0 strains | Number of strains the growth of which has been inhibited [2, 20]: 1 strains | Number of strains the growth of which has been inhibited [2, 21]: 0 strains | Number of strains the growth of which has been inhibited [2, 22]: 0 strains | Number of strains the growth of which has been inhibited [2, 23]: 2 strains | Number of strains the growth of which has been inhibited [2, 24]: 3 strains | Number of strains the growth of which has been inhibited [2, 25]: 2 strains | Number of strains the growth of which has been inhibited [2, 26]: 1 strains | Minimum inhibitory concentration against cerevisiae [3]: 2 µg/mL (≈ 1.84 µM) | Number of strains the growth of which has been inhibited [4, 27]: 1 strains | Number of strains the growth of which has been inhibited [4, 28]: 11 strains | Number of strains the growth of which has been inhibited [4, 29]: 0 strains | Number of strains the growth of which has been inhibited [4, 30]: 0 strains | Number of strains the growth of which has been inhibited [4, 31]: 0 strains | Number of strains the growth of which has been inhibited [4, 32]: 0 strains | Number of strains the growth of which has been inhibited [4, 33]: 0 strains | Number of strains the growth of which has been inhibited [4, 34]: 12 strains | Number of strains the growth of which has been inhibited [4, 35]: 0 strains | Number of strains the growth of which has been inhibited [4, 36]: 0 strains | Minimum inhibitory concentration against Candida albicans [5]: 2 µg/mL (≈ 1.84 µM)

CC1C=CC=CC=CC=CC=CC=CC=CC(OC2OC(C)C(O)C(N)C2O)CC2OC(O)(CC(O)CC(O)C(O)CCC(O)CC(O)CC(=O)OC(C)C(C)C1O)CC(O)C2C(=O)O (stereo not drawn) [amphotericin B]
MIC ([6]; 48 h): 0.05 µg/mL (≈ 0.0541 µM)

C[C@@H]1[C@H](O)[C@@H](C)/C=C/C=C/C=C/C=C/C=C/C=C/C=C/[C@H](O[C@@H]2O[C@H](C)[C@@H](O)[C@H](N)[C@@H]2O)C[C@@H]2O[C@](O)(C[C@@H](O)[C@H](O)CC[C@@H](O)CC(=O)C[C@@H](O)CC(=O)O[C@H]1C)C[C@H](O)[C@H]2C(=O)O [mycoheptin]
MIC [6, 37]: 2.5 µg/mL (≈ 2.71 µM)

C[C@@H]1[C@H](O)[C@@H](C)/C=C/C=C/CC/C=C/C=C/C=C/C=C/[C@H](O[C@@H]2O[C@H](C)[C@@H](O)[C@H](NC3O[C@H](CO)[C@@H](O)[C@H](O)[C@H]3O)[C@@H]2O)C[C@@H]2O[C@](O)(C[C@@H](O)[C@H](O)CC[C@@H](O)C[C@@H](O)C[C@@H](O)CC(=O)O[C@H]1C)C[C@H](O)[C@H]2C(=O)O (stereo partly drawn) [NGL nystatin A1]
MIC [6, 37]: 1.0 µg/mL (≈ 0.919 µM)

candicidin
MIC [6, 37]: 0.001 µg/mL

C[C@@H]1C/C=C/C=C/C=C/C=C/[C@H](O[C@@H]2O[C@H](C)[C@@H](O)[C@H](N)[C@@H]2O)C[C@@H]2O[C@](O)(C[C@@H](O)C[C@H]3O[C@@H]3/C=C/C(=O)O1)C[C@H](O)[C@H]2C(=O)O [pimaricin]
MIC ([6]; 48 h): 2.5 µg/mL (≈ 3.76 µM)

COc1cc2c(c3oc(-c4ccccc4)cc(=O)c13)C=CC(C)(C)O2 [candidin]
MIC ([6]; 48 h): 0.2 µg/mL (≈ 0.598 µM)

CCC[C@@H]1C/C=C/C=C/C=C/C=C/[C@H](O[C@@H]2O[C@H](C)[C@@H](O)[C@H](N)[C@@H]2O)C[C@@H]2O[C@](O)(C[C@@H](O)CCCC(=O)C[C@@H](O)[C@H](CC)C(=O)O1)C[C@H](O)[C@H]2C(=O)O [rimocidin]
MIC [6, 37]: 2.5 µg/mL (≈ 3.26 µM)

trichomycin
MIC [6, 37]: 0.001 µg/mL

CC1C=CC=CCCC=CC=CC=CC=CC(OC2OC(C)C(O)C(N)C2O)CC2OC(O)(CC(O)C(O)CCC(O)CC(O)CC(O)CC(=O)OC(C)C(C)C1O)CC(O)C2C(=O)O (stereo not drawn) [nystatin A1]
MIC ([6]; 48 h): 0.5 µg/mL (≈ 0.54 µM)

C[C@@H]1[C@H](O)[C@@H](C)/C=C/C=C/CC/C=C/C=C/C=C/C=C/[C@H](O[C@@H]2O[C@H](C)[C@@H](O)[C@H](NC3O[C@H](CO)[C@@H](O)[C@H](O)[C@H]3O)[C@@H]2O)C[C@@H]2O[C@](O)(C[C@@H](O)[C@H](O)CC[C@@H](O)C[C@@H](O)C[C@@H](O)CC(=O)O[C@H]1C)C[C@H](O)[C@H]2C(=O)[O-].[Na+] (stereo partly drawn)
solubility / dispersion in water: form true solutions free of colloids

C[C@@H]1[C@H](O)[C@@H](C)/C=C/C=C/CC/C=C/C=C/C=C/C=C/[C@H](O[C@@H]2O[C@H](C)[C@@H](O)[C@H](NC3O[C@H](CO)[C@@H](O[C@H]4O[C@H](CO)[C@@H](O)[C@H](O)[C@H]4O)[C@H](O)[C@H]3O)[C@@H]2O)C[C@@H]2O[C@](O)(C[C@@H](O)[C@H](O)CC[C@@H](O)C[C@@H](O)C[C@@H](O)CC(=O)O[C@H]1C)C[C@H](O)[C@H]2C(=O)[O-].[Na+] (stereo partly drawn)
solubility / dispersion in water: form true solutions free of colloids
